# In US12569459B2, “Compositions and methods for treating pulmonary edema or lung inflammation” (priority 2020, dated 2026):
# Test system: RLE-6TN cells
# Experiment: RLE-6TN cell survival under hyperoxia, viable cells by trypan blue exclusion
# Format: cell-based, rat
# Protocol: FIG. 7. […] The cells were cultured in DMEM/F12 with 10% FBS in 21% O2 and 5% CO2 overnight. […] The viable cells are counted immediately after 72-hour hyperoxia exposure. Cell viability is assessed with trypan blue. Viable cells under specific conditions are presented as a percentage of the cell number from hyperoxia alone. Data are mean±s.d. of four independent experiments with *=P<0.05; **=P<0.01.
# FIG. 8. […] In both (A) and (B), the number of viable cells under specific conditions is presented as a percentage of the cell number related to hyperoxia alone in the same experiment. Data are mean±s.d. of four independent experiments with *=P<0.05; **=P<0.01.
# FIG. 10. HO-1 Upregulation is required for T3-increased RLE-6TN cell survival in hyperoxia. […] The cells were then collected for Western Blot analysis. (B) The cells were incubated in 21% O2 and 5% CO2 for 72 hours in the present of HO-1 inhibitor Tin Protoporphyrin IX(10^−6 M) tinT3 (10^−6 M). […] Cell viability is assessed with trypan blue. The number of viable cells under specific conditions is presented as a percentage of the cell number related to hyperoxia alone. Data are mean±s.d. of three independent experiments with *=P<0.05; **=P<0.01.
# FIG. 11. PI3K inhibitor wortmannin blocked T3-induced cell survival in hyperoxia. […] Cell viability is assessed with trypan blue. The number of viable cells under specific conditions is presented as a percentage of the cell number related to hyperoxia alone. Data are mean±s.d. of four independent experiments with *=P<0.05; **=P<0.01.
# At the end of the hyperoxia exposure period, the viable cells were counted by trypan blue dye exclusion.
smiles,measurement,setting,value
"C=Cc1c2[n-]c(c1C)/C=c1\[n-]/c(c(C)c1C=C)=C\c1[n-]c(c(CCC(=O)O)c1C)C=c1[n-]/c(c(C)c1CCC(=O)O)=C\2.[Sn+4] [Tin protoporphyrin, Tin Protoporphyrin IX]",Effect on AT2 cell number in room air,"21% O2 72 hours, 10^−6 M",had no effect on AT2 cell number in room air
same,Effect on T3-caused increase in cell survival in hyperoxia,"90% O2 72 hours, T3 10^−6 M, Tin Protoporphyrin 10^−6 M",blocked the T3-caused increase in cell survival and augmented cell death
N[C@@H](Cc1ccc(Oc2cc(I)c(O)c(I)c2)c(I)c1)C(=O)O [rT3],Effect on cell survival under hyperoxia,"90% oxygen 72 hours, 10^−6 M",had no role in cell survival
